In patent publication US20250129067A1 (Progentos Therapeutics, Inc., priority 2021, published 2025):
Like-named read-outs stand apart in the source and are kept apart here.

Legend:
[1] = tested on: Oligodendrocyte progenitor cells (OPCs); assay: In vitro OPC differentiation assay, MBP expression (immunocytochemistry); settings: 72 hours of treatment; fold change over vehicle
[2] = tested on: GPR17+ cells (newly differentiated oligodendrocytes); assay: In vivo OPC differentiation, GPR17+ cells in brain; settings: for fold induction at 3.3 mg/kg / fold induction at 30 mg/kg / fold induction at 3 mg/kg / fold induction at 10 mg/kg: Mus musculus, po, 24 h, read-out: GPR17 Fold Induction (Over Vehicle)
[3] = molecular target: PDGFRα (Homo sapiens (Human), UniProt P16234); assay: PDGFRα kinase enzyme assay (Promega PDGFRα Kinase Enzyme System, ADP-Glo); format: biochemical; settings: 150 uM ATP
PDGFRα, sequence (P16234 24-1089): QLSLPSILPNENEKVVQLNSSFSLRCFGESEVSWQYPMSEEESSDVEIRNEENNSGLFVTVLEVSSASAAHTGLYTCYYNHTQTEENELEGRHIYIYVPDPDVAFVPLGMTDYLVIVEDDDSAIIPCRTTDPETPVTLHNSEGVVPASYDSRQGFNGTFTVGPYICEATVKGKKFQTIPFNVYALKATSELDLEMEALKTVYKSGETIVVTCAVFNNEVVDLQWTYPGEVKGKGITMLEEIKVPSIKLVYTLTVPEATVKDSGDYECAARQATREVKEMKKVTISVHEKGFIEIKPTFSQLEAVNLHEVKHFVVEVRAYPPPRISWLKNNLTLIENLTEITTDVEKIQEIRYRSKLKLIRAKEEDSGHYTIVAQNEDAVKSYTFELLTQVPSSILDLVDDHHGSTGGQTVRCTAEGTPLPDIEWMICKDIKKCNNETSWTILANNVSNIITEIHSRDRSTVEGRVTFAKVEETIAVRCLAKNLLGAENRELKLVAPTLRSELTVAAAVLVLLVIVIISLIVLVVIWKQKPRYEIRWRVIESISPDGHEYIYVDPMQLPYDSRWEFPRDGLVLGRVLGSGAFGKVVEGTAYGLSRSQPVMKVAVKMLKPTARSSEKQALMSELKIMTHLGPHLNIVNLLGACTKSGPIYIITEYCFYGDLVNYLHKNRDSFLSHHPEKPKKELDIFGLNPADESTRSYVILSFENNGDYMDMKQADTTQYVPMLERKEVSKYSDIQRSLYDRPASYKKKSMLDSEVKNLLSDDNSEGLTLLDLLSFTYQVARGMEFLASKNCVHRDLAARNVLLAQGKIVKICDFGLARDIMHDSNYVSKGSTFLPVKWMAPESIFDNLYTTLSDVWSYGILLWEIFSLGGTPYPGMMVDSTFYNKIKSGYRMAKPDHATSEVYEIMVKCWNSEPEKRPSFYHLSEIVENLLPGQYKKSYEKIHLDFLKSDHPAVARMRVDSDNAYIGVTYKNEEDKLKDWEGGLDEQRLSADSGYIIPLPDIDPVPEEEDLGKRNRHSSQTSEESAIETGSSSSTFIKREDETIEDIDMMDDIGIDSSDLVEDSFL
How it was run: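 Purified PDGFRα protein (20 ng) reacted with test compound per the Promega kinase system protocol. ADP formed was measured by ADP-Glo luminescence against a standard curve, giving IC50.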

[4] = tested on: Oligodendrocyte progenitor cells (OPCs); assay: In vitro OPC differentiation assay, GPR17 expression (immunocytochemistry); settings: 72 hours, fold change over vehicle; for GPR17 Fold Induction (Over Vehicle; 3 μM): 3 μM (10× concentration, final 0.3 μM); for GPR17 Fold Induction (Over Vehicle; 5 μM): 5 μM (10× concentration, final 0.5 μM)
[5] = 11-point dose response, 10,000 nM to 0.169 nM, BLQ = below limit of quantitation, read-out: IC50 Values on PDGFRα Kinase Inhibition, IC50
[6] = 20 ng purified PDGFRα, Poly (Glu4Tyr1) substrate, two hours, 11-point dose response, read-out: IC50 Values on PDGFRα Kinase Inhibition

Row | SMILES | MBP Fold Induction (Over vehicle) [1] | fold induction at 3.3 mg/kg [2] | IC50 [3, 5] | GPR17 Fold Induction (Over Vehicle; 3 μM) [4] | GPR17 Fold Induction (Over Vehicle; 5 μM) [4] | fold induction at 30 mg/kg [2] | fold induction at 3 mg/kg [2] | fold induction at 10 mg/kg [2] | IC50 [3, 6] | GPR17 Fold Induction (Over Vehicle) ([2]; dose not assignable from Table 10, GPR17+ cells in brain, mice)
1 | Cn1cc(-c2ccc3c(N4CCN(C(=O)CCc5ccccc5)CC4)cnn3c2)cn1 [Compound 1, 6-(1-methyl-1H-pyrazol-4-yl)-3-[4-(3-phenylpropanoyl)piperazin-1-yl]pyrazolo[1,5-a]pyridine] | 9.82 | 1.06 | 4010 nM | 5.25 | 2.94 | – | – | – | – | –
2 | Cn1cc(-c2ccn3c(N4CCN(c5ncc(Cc6ccccc6)cn5)CC4)cnc3c2)cn1 [Compound 23, 3-[4-(5-benzylpyrimidin-2-yl)piperazin-1-yl]-7-(1-methyl-1H-pyrazol-4-yl)imidazo[1,2-a]pyridine] | 2.1 | – | 424 nM | 9.53 | 3.98 | 14.8 | – | – | – | –
3 | CC(c1ccc(F)cc1)c1cnc(N2CCN(c3cnn4cc(-c5cnn(C)c5)ccc34)CC2)nc1 (stereo not shown) [Compound 258, 3-(4-(5-(1-(4-fluorophenyl)ethyl)pyrimidin-2-yl)piperazin-1-yl)-6-(1-methyl-1H-pyrazol-4-yl)pyrazolo[1,5-a]pyridine] | 16.36 | – | 803 nM | 9.21 | – | – | 2.82 | – | – | –
4 | Cn1cc(-c2ccc3c(N4CCN(c5ncc(Cc6cccs6)cn5)CC4)cnn3c2)cn1 [Compound 178, 6-(1-methyl-1H-pyrazol-4-yl)-3-(4-(5-(thiophen-2-ylmethyl)pyrimidin-2-yl)piperazin-1-yl)pyrazolo[1,5-a]pyridine] | 7.25 | – | 2070 nM | 5.98 | – | 0.96 | – | – | – | –
5 | Cn1cc(-c2ccc3c(N4CCN(C(=O)N5CCCCC5)CC4)cnn3c2)cn1 [Compound 163, (4-(6-(1-methyl-1H-pyrazol-4-yl)pyrazolo[1,5-a]pyridin-3-yl)piperazin-1-yl)(piperidin-1-yl)methanone] | 48.00 | – | 350 nM | 5.84 | – | – | 0.95 | – | – | –
6 | Cn1cc(-c2ccc3c(N4CCN(C(=O)NCc5ccc(Cl)cc5)CC4)cnn3c2)cn1 [Compound 275, N-(4-chlorobenzyl)-4-[6-(1-methyl-1H-pyrazol-4-yl)pyrazolo[1,5-a]pyridin-3-yl]piperazine-1-carboxamide] | 2.71 | – | 67 nM | 6.70 | – | – | 5.31 | – | – | –
7 | Cn1cc(-c2ccc3c(N4CCN(C(=O)OC(C)(C)C)CC4)cnn3c2)cn1 [Compound 11, tert-butyl 4-[6-(1-methyl-1H-pyrazol-4-yl)pyrazolo[1,5-a]pyridin-3-yl]piperazine-1-carboxylate] | 1.93 | 2.14 | 326 nM | 10.21 | 4.22 | – | – | 9.93 | < 1000 nM | –
8 | Cn1cc(-c2ccc3c(N4CCN(C(=O)OCCc5ccccc5)CC4)cnn3c2)cn1 [Compound 30, 2-phenylethyl-4-[6-(1-methyl-1H-pyrazol-4-yl)pyrazolo[1,5-a]pyridin-3-yl]piperazine-1-carboxylate] | 1.78 | 9.91 | 998 nM | 6.05 | 3.25 | – | – | – | – | –
9 | CC(C)n1cc(-c2ccc3c(N4CCN(C(=O)OC(C)(C)C)CC4)cnn3c2)cn1 [Compound 234, tert-butyl 4-(6-(1-isopropyl-1H-pyrazol-4-yl)pyrazolo[1,5-a]pyridin-3-yl)piperazine-1-carboxylate] | 11.56 | – | 311 nM | 7.16 | – | – | 1.15 | – | – | –
10 | COc1cccc(Cc2cnc(N3CCN(c4cnn5cc(-c6cnn(C)c6)ccc45)CC3)nc2)c1 [Compound 54, 3-{4-[5-(3-methoxybenzyl)pyrimidin-2-yl]piperazin-1-yl}-6-(1-methyl-1H-pyrazol-4-yl)pyrazolo[1,5-a]pyridine] | 2.14 | – | 630 nM | 6.81 | – | 3.48 | 1.24 | – | – | –
11 | Cn1cc(-c2ccc3c(N4CCN(c5ncc(C(C)(O)c6ccc(F)cc6)cn5)CC4)cnn3c2)cn1 (stereo not shown) [Compound 46, 1-(4-fluorophenyl)-1-(2-{4-[6-(1-methyl-1H-pyrazol-4-yl)pyrazolo[1,5-a]pyridin-3-yl]piperazin-1-yl}pyrimidin-5-yl)ethanol] | 3.97 | – | 122 nM | 6.86 | – | – | – | – | – | 11.15 fold
12 | Cn1cc(-c2ccc3c(N4CCN(c5ncc(C(C)(N)c6ccc(F)cc6)cn5)CC4)cnn3c2)cn1 (stereo not shown) [Compound 35, 1-(4-fluorophenyl)-1-(2-{4-[6-(1-methyl-1H-pyrazol-4-yl)pyrazolo[1,5-a]pyridin-3-yl]piperazin-1-yl}pyrimidin-5-yl)ethanamine] | 1.69 | 5.01 | 2090 nM | 7.17 | 3.57 | – | – | – | – | –
13 | Cn1cc(-c2ccc3c(N4CCN(C(=O)OCc5ccccc5)CC4)cnn3c2)cn1 [Compound 13, Benzyl 4-[6-(1-methyl-1H-pyrazol-4-yl)pyrazolo[1,5-a]pyridin-3-yl]piperazine-1-carboxylate] | 10.24 | 1.85 | 421 nM | 8.42 | 4.31 | – | – | – | < 1000 nM | –
14 | C[C@@H](OC(=O)N1CCN(c2cnn3cc(-c4cnn(C)c4)ccc23)CC1)c1ccccn1 [Compound 260, (1R)-1-pyridin-2-ylethyl 4-[6-(1-methyl-1H-pyrazol-4-yl)pyrazolo[1,5-a]pyridin-3-yl]piperazine-1-carboxylate] | 11.66 | – | 377 nM | 6.26 | – | – | – | 2.79 | – | –
15 | Cn1cc(-c2ccc3c(N4CCN(c5ncc(Cc6ccncc6)cn5)CC4)cnn3c2)cn1 [Compound 179, 6-(1-methyl-1H-pyrazol-4-yl)-3-(4-(5-(pyridin-4-ylmethyl)pyrimidin-2-yl)piperazin-1-yl)pyrazolo[1,5-a]pyridine] | 10.12 | – | 662 nM | 5.37 | – | – | – | 8.36 | – | –
